This assay addresses WDR5 (Homo sapiens (Human), UniProt P61964). The experiment in a line: Surface Plasmon Resonance (SPR) assay, KD and residence time. Format: binding. Conditions: read-out: WDR5 binding affinity (KD). The protocol:
(i) Surface Plasmon Resonance (SPR) Assay
The lifetime of a drug on its target is determined by two rate constants: the association rate constant (kon) and the dissociation rate constant (koff). In principle, the lifetime of the binary drug—target complex is thus extended by a rapid rate of drug binding and/or a slow rate of drug—target complex dissociation. The in vivo lifetime of a drug-target complex is most critically dependent on the value of the koff [Nat. Rev. Drug Discov. […] Drug Discov. […] Drug-target residence time is defined as the reciprocal of koff (τ=1/koff), making the residence time a parameter that is easily measured by routine in vitro assay methods.

Where [1] appears, read: surface plasmon resonance (SPR) assay.
[2] abbreviates: surface plasmon resonance (SPR).

pKd: −log10 of the molar value. Like-named read-outs stand apart in the source and are kept apart here.

One may read the pKd as −log10 of the Kd, conventionally taken in molar units.

Consider `CC1CN(c2cc(F)c(-c3ccc(N4CCN(C)CC4)nc3)cc2NC(=O)c2cn(C)c(=O)cc2C(F)(F)F)CCN1C` (stereo in doubt) [Example 301, N-[4-fluoro-5-[6-(4-methylpiperazin-1-yl)pyridin-3-yl]-2-[(3R)-3,4-dimethylpiperazin-1-yl]phenyl]-1-methyl-6-oxo-4-(trifluoromethyl)pyridine-3-carboxamide], for which, under setting [1], the pKd was 8.28.

For `CC1CN(c2cc(F)c(-c3ccc(N4CCN(C)CC4)cc3)cc2NC(=O)c2cn(C)c(=O)cc2C(F)(F)F)CCN1C` (stereo in doubt) [Example 302, N-[4-fluoro-5-[4-(4-methylpiperazin-1-yl)phenyl]-2-[(3R)-3,4-dimethylpiperazin-1-yl]phenyl]-1-methyl-6-oxo-4-(trifluoromethyl)pyridine-3-carboxamide], the pKd under setting [1] is 8.27. Same read-out and setting: the result for `CC1CN(c2cc(F)c(-c3cnc(N4CCN(C)CC4)nc3)cc2NC(=O)c2ccc(F)cc2C(F)(F)F)CCN1C` (stereo in doubt) [Example 316, 4-fluoro-N-[4-fluoro-5-[2-(4-methylpiperazin-1-yl)pyrimidin-5-yl]-2-[(3R)-3,4-dimethylpiperazin-1-yl]phenyl]-2-(trifluoromethyl)benzamide] reads 9.00. The same measure, in the same setting: in the case of `CC1CN(c2cc(F)c(-c3cnc(N4CC(C)(C)OC(C)(C)C4)nc3)cc2NC(=O)c2c[nH]c(=O)cc2C(F)(F)F)CCN1C` (stereo in doubt) [Example 319, N-[4-fluoro-2-[(3R)-3,4-dimethylpiperazin-1-yl]-5-[2-(2,2,6,6-tetramethylmorpholin-4-yl)pyrimidin-5-yl]phenyl]-6-oxo-4-(trifluoromethyl)-1H-pyridine-3-carboxamide] it was 8.79. Still for that read-out and setting: the result for `CC1CN(c2cc(F)c(-c3ccc(N4CCOCC4)nc3)cc2NC(=O)c2c[nH]c(=O)cc2C(F)F)CCN1C` (stereo in doubt) [Example 331, 4-(difluoromethyl)-N-[4-fluoro-5-(6-morpholin-4-ylpyridin-3-yl)-2-[(3R)-3,4-dimethylpiperazin-1-yl]phenyl]-6-oxo-1H-pyridine-3-carboxamide] reads 8.70; that for `C[C@@H]1CN(c2cc(F)c(-c3cnc(N4CCOC[C@H]4C)nc3)cc2NC(=O)c2c[nH]c(=O)cc2C(F)(F)F)CCN1C` (stereo in doubt) [Example 337, N-[4-fluoro-2-[(3R)-3,4-dimethylpiperazin-1-yl]-5-[2-[(3R)-3-methylmorpholin-4-yl]pyrimidin-5-yl]phenyl]-6-oxo-4-(trifluoromethyl)-1H-pyridine-3-carboxamide], 8.94. For `CC1COCCN1c1ncc(-c2cc(NC(=O)c3c[nH]c(=O)cc3C(F)(F)F)c(N3C[C@@H](C)N(C)[C@@H](C)C3)cc2F)cn1` (stereo in doubt) [Example 338, N-[4-fluoro-5-[2-[(3R)-3-methylmorpholin-4-yl]pyrimidin-5-yl]-2-[(3S,5R)-3,4,5-trimethylpiperazin-1-yl]phenyl]-6-oxo-4-(trifluoromethyl)-1H-pyridine-3-carboxamide], the pKd under setting [1] is 8.68. Same read-out and setting: the result for `CC(C)[C@@H]1CN(c2ncc(-c3cc(NC(=O)c4c[nH]c(=O)cc4C(F)(F)F)c(N4CCN(C)[C@H](C)C4)cc3F)cn2)CCO1` (stereo in doubt) [Example 347, N-[4-fluoro-2-[(3R)-3,4-dimethylpiperazin-1-yl]-5-[2-[(2R)-2-propan-2-ylmorpholin-4-yl]pyrimidin-5-yl]phenyl]-6-oxo-4-(trifluoromethyl)-1H-pyridine-3-carboxamide] reads 9.22. On the same count and under the same terms, in the case of `CC1CN(c2cc(F)c(-c3cnc(N4CCOC(C)(C)C4)nc3)cc2NC(=O)c2c[nH]c(=O)cc2C(F)(F)F)CCN1C` (stereo in doubt) [Example 349, N-[5-[2-(2,2-dimethylmorpholin-4-yl)pyrimidin-5-yl]-4-fluoro-2-[(3R)-3,4-dimethylpiperazin-1-yl]phenyl]-6-oxo-4-(trifluoromethyl)-1H-pyridine-3-carboxamide] it was 8.63; in that of `C[C@@H]1CN(c2ncc(-c3cc(NC(=O)c4c[nH]c(=O)cc4C(F)(F)F)c(N4C[C@@H](C)N(C)[C@H](C)C4)cc3F)cn2)C[C@H](C)O1` (stereo in doubt) [Example 356, N-[4-fluoro-5-[2-[(2R,6S)-2,6-dimethylmorpholin-4-yl]pyrimidin-5-yl]-2-[(3R,5R)-3,4,5-trimethylpiperazin-1-yl]phenyl]-6-oxo-4-(trifluoromethyl)-1H-pyridine-3-carboxamide], 7.70.

As for `C[C@@H]1CN(c2cc(F)c(-c3ccc(N4CCOCC4)c(F)c3)cc2NC(=O)c2c[nH]c(=O)cc2C(F)(F)F)C[C@@H](C)N1C` (stereo in doubt) [Example 357, N-[4-fluoro-5-(3-fluoro-4-morpholin-4-ylphenyl)-2-[(3R,5R)-3,4,5-trimethylpiperazin-1-yl]phenyl]-6-oxo-4-(trifluoromethyl)-1H-pyridine-3-carboxamide], the pKd under setting [1] is 6.88. On to `C[C@@H]1CN(c2cc(F)c(-c3cnc(N(C)[C@@H]4CCOC4)nc3)cc2NC(=O)c2c[nH]c(=O)cc2C(F)(F)F)CCN1C` (stereo in doubt) [Example 362, N-[4-fluoro-5-[2-[methyl-[(3R)-oxolan-3-yl]amino]pyrimidin-5-yl]-2-[(3R)-3,4-dimethylpiperazin-1-yl]phenyl]-6-oxo-4-(trifluoromethyl)-1H-pyridine-3-carboxamide], for which the pKd under setting [1] is 9.61. Same read-out and setting: in the case of `C[C@@H]1CN(c2cc(F)c(-c3cnc(N(C)C4CCOC4)nc3)cc2NC(=O)c2c[nH]c(=O)cc2C(F)(F)F)C[C@H](C)N1C` (stereo in doubt) [Example 363, N-[4-fluoro-5-[2-[methyl-[(3R)-oxolan-3-yl]amino]pyrimidin-5-yl]-2-[(3S,5R)-3,4,5-trimethylpiperazin-1-yl]phenyl]-6-oxo-4-(trifluoromethyl)-1H-pyridine-3-carboxamide] it was 9.20; in that of `CC1CN(c2cc(F)c(-c3cnc(N(C)C4CCOCC4)nc3)cc2NC(=O)c2c[nH]c(=O)cc2C(F)(F)F)CCN1C` (stereo in doubt) [Example 370, N-[4-fluoro-5-[2-[methyl(oxan-4-yl)amino]pyrimidin-5-yl]-2-[(3R)-3,4-dimethylpiperazin-1-yl]phenyl]-6-oxo-4-(trifluoromethyl)-1H-pyridine-3-carboxamide], 9.06; in that of `C[C@@H]1CN(c2ncc(-c3cc(NC(=O)c4c[nH]c(=O)cc4C(F)(F)F)c(N4CCN(C)[C@H](C)C4)cc3F)cn2)CCO1` (stereo in doubt) [Example 389, N-[4-fluoro-2-[(3R)-3,4-dimethylpiperazin-1-yl]-5-[2-[(2R)-2-methylmorpholin-4-yl]pyrimidin-5-yl]phenyl]-6-oxo-4-(trifluoromethyl)-1H-pyridine-3-carboxamide], 9.28.

With `CC1CN(c2ncc(-c3cc(NC(=O)c4c[nH]c(=O)cc4C(F)(F)F)c(N4C[C@@H](C)N(C)[C@@H](C)C4)cc3F)cn2)CCO1` (stereo in doubt) [Example 390, N-[4-fluoro-5-[2-[(2R)-2-methylmorpholin-4-yl]pyrimidin-5-yl]-2-[(3S,5R)-3,4,5-trimethylpiperazin-1-yl]phenyl]-6-oxo-4-(trifluoromethyl)-1H-pyridine-3-carboxamide], the pKd under setting [1] is 9.20.

On to `CC1CN(c2ncc(-c3cc(NC(=O)c4c[nH]c(=O)cc4C(F)F)c(N4C[C@@H](C)N(C)[C@@H](C)C4)cc3F)cn2)CCO1` (stereo in doubt) [Example 397, 4-(difluoromethyl)-N-[4-fluoro-5-[2-[(2R)-2-methylmorpholin-4-yl]pyrimidin-5-yl]-2-[(3S,5R)-3,4,5-trimethylpiperazin-1-yl]phenyl]-6-oxo-1H-pyridine-3-carboxamide], for which the pKd under setting [2] is 9.17.

Regarding `C[C@@H]1CN(c2ncc(-c3cc(NC(=O)c4c[nH]c(=O)cc4C(F)(F)F)c(N4CCC(N(C)C)C4)cc3F)cn2)C[C@H](C)O1` (stereo in doubt) [Example 417, N-[4-fluoro-2-[(3S)-3-(dimethylamino)pyrrolidin-1-yl]-5-[2-[(2R,6S)-2,6-dimethylmorpholin-4-yl]pyrimidin-5-yl]phenyl]-6-oxo-4-(trifluoromethyl)-1H-pyridine-3-carboxamide], under setting [2], the pKd was 8.85. The same measure, in the same setting: in the case of `CC1CN(c2cc(F)c(-c3ccc(N4C[C@@H](C)O[C@@H](C)C4)nc3)cc2NC(=O)c2ccc(F)cc2C(F)(F)F)CCN1C` (stereo in doubt) [Example 423, 4-fluoro-N-[4-fluoro-5-[6-[(2R,6S)-2,6-dimethylmorpholin-4-yl]pyridin-3-yl]-2-[(3R)-3,4-dimethylpiperazin-1-yl]phenyl]-2-(trifluoromethyl)benzamide] it was 8.71; in that of `CC1CN(c2cc(F)c(-c3cnc(N4CCC(C)(O)CC4)nc3)cc2NC(=O)c2c[nH]c(=O)cc2C(F)(F)F)CCN1C` (stereo in doubt) [Example 424, N-[4-fluoro-5-[2-(4-hydroxy-4-methylpiperidin-1-yl)pyrimidin-5-yl]-2-[(3R)-3,4-dimethylpiperazin-1-yl]phenyl]-6-oxo-4-(trifluoromethyl)-1H-pyridine-3-carboxamide], 9.22. The same measure, in the same setting: the result for `C[C@@H]1CN(c2ccc(-c3cc(NC(=O)c4c[nH]c(=O)cc4C(F)(F)F)c(N4CCN(C)[C@H](C)C4)cc3F)cn2)CCO1` (stereo in doubt) [Example 433, N-[4-fluoro-2-[(3R)-3,4-dimethylpiperazin-1-yl]-5-[6-[(2R)-2-methylmorpholin-4-yl]pyridin-3-yl]phenyl]-6-oxo-4-(trifluoromethyl)-1H-pyridine-3-carboxamide] reads 8.55.

(Values after patent US11319299B2, “Substituted carboxamides as inhibitors of WDR5 protein-protein binding” (PROPELLON THERAPEUTICS INC., priority 2016, dated 2022).)
